The structures appear in SMILES notation.

KRas G12C, sequence (P01116 1-188 isoform P01116-2 G12C): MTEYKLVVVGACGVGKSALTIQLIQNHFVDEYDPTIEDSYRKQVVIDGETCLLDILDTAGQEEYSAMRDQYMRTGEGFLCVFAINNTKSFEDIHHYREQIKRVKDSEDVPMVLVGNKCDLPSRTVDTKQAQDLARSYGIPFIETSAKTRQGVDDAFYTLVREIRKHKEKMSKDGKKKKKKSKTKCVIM

The test has as its target KRas G12C (Homo sapiens, UniProt P01116, G12C). Nature of the test: Cellular inhibition of KRas G12C measured by Phospho-ERK in NCI-H358 cells. The format is cell-based. Conditions: pERK(Thr202/Tyr204) normalized with GAPDH, NCI-H358 cells, 3 hours; read-out: IC50. A digest of the protocol: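 NCI-H358 cells were allowed to attach for 8-12 hours, then exposed to compounds for 3 hours at 0.5% DMSO final. After formaldehyde fixation and methanol permeabilization, phospho-ERK (Thr202/Tyr204) was detected by in-cell immunofluorescence and normalized to GAPDH; IC50 came from a 4-parameter fit of percent-of-DMSO values.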
Usually IC50 stands for the concentration that inhibits the measured activity by half. Regarding `C=CC(=O)N1CCN(c2nc(OCCN3CCCCC3)nc3c2CCN(c2cccc4ccccc24)C3)CC1CC#N` (stereo not shown) [Example 303, 2-[4-[7-(1-naphthyl)-2-[2-(1-piperidyl)ethoxy]-6,8-dihydro-5H-pyrido[3,4-d]pyrimidin-4-yl]-1-prop-2-enoyl-piperazin-2-yl]acetonitrile], the IC50 is 0.1 to 1000 nM.

`C=C(Cl)C(=O)N1CCN(c2nc(OC[C@@H]3CCCN3C)nc3c2CCN(c2cccc(C)c2C)C3)C[C@@H]1CC#N` [Example 473, 2-[(2S)-1-(2-chloroprop-2-enoyl)-4-[7-(2,3-dimethylphenyl)-2-[[(2S)-1-methylpyrrolidin-2-yl]methoxy]-6,8-dihydro-5H-pyrido[3,4-d]pyrimidin-4-yl]piperazin-2-yl]acetonitrile]: the IC50 lay within 0.1 to 1000 nM.

For `C=CC(=O)N1CCN(c2nc(O[C@H](C)CN3CCCC3)nc3c2CCN(c2cc(O)cc4ccccc24)C3)CC1` [Example 120, (R)-1-(4-(7-(3-hydroxynaphthalen-1-yl)-2-((1-(pyrrolidin-1-yl)propan-2-yl)oxy)-5,6,7,8-tetrahydropyrido[3,4-d]pyrimidin-4-yl)piperazin-1-yl)prop-2-en-1-one], the half-inhibitory concentration (IC50) was in the range of 0.1 to 1000 nM.

Take `C=CC(=O)N1CCN(c2nc(OC[C@@H]3CCCN3C)nc3c2CCN(c2ccncc2C(F)(F)F)C3)CC1CC#N` (stereo partly drawn) [Example 239, 2-(1-acryloyl-4-(2-(((S)-1-methylpyrrolidin-2-yl)methoxy)-7-(3-(trifluoromethyl)pyridin-4-yl)-5,6,7,8-tetrahydropyrido[3,4-d]pyrimidin-4-yl)piperazin-2-yl)acetonitrile]: the IC50 was greater than 1000 nM.

`C=CC(=O)N1CCN(c2nc(OCCCN3CCOCC3)nc3c2CCN(c2cc(O)cc4ccccc24)C3)CC1` [Example 74, 1-(4-(7-(3-hydroxynaphthalen-1-yl)-2-(3-morpholinopropoxy)-5,6,7,8-tetrahydropyrido[3,4-d]pyrimidin-4-yl)piperazin-1-yl)prop-2-en-1-one]: the IC50 fell in the range of 0.1 to 1000 nM.

On to `C=CC(=O)N1CCN(c2nc(OC[C@@H]3C[C@@H](OC)CN3C)nc3c2CCN(c2cccc4ccccc24)C3)C[C@@H]1CC#N` [Example 327, 2-((S)-1-acryloyl-4-(2-(((2S,4R)-4-methoxy-1-methylpyrrolidin-2-yl)methoxy)-7-(naphthalen-1-yl)-5,6,7,8-tetrahydropyrido[3,4-d]pyrimidin-4-yl)piperazin-2-yl)acetonitrile], for which the IC50 is 0.1 to 1000 nM.

As for `C=CC(=O)N1CCN(c2nc(OC[C@H]3CCCN3C)nc3c2CCN(c2ccccc2C(F)(F)F)C3)CC1CC#N` (stereo partly drawn) [Example 299, 2-[4-[2-[[(2R)-1-methylpyrrolidin-2-yl]methoxy]-7-[2-(trifluoromethyl)phenyl]-6,8-dihydro-5H-pyrido[3,4-d]pyrimidin-4-yl]-1-prop-2-enoyl-piperazin-2-yl]acetonitrile], the IC50 lay in the range of 0.1 to 1000 nM.

On to `C=C(F)C(=O)N1CCN(c2nc(OC[C@@H]3CCCN3C)nc3c2CCN(c2cncc4ccc(C)cc24)C3)C[C@@H]1CC#N` [Example 607, 2-((S)-1-(2-fluoroacryloyl)-4-(7-(6-methylisoquinolin-4-yl)-2-(((S)-1-methylpyrrolidin-2-yl)methoxy)-5,6,7,8-tetrahydropyrido[3,4-d]pyrimidin-4-yl)piperazin-2-yl)acetonitrile], for which the IC50 lay in the range of 0.1 to 1000 nM.

Consider `C=CC(=O)N1CCN(c2nc(OCCN(C)CCO)nc3c2CCN(c2cc(O)cc4ccccc24)C3)CC1` [Example 83, 1-(4-(2-(2-((2-hydroxyethyl)(methyl)amino)ethoxy)-7-(3-hydroxynaphthalen-1-yl)-5,6,7,8-tetrahydropyrido[3,4-d]pyrimidin-4-yl)piperazin-1-yl)prop-2-en-1-one], for which the IC50 was greater than 1000 nM.

With `C=CC(=O)N1CCN(c2nc(OCCN3CCC[C@@H](OC)C3)nc3c2CCN(c2cc(O)cc4ccccc24)C3)CC1` [Example 99, (R)-1-(4-(7-(3-hydroxynaphthalen-1-yl)-2-(2-(3-methoxypiperidin-1-yl)ethoxy)-5,6,7,8-tetrahydropyrido[3,4-d]pyrimidin-4-yl)piperazin-1-yl)prop-2-en-1-one], the IC50 was greater than 1000 nM.

On to `C=CC(=O)N1CCN(c2nc(OC[C@@H]3CCCN3C)nc3c2CCN(c2ccnc4ccccc24)C3)CC1CC#N` (stereo partly drawn) [Example 278, 2-(1-acryloyl-4-(2-(((S)-1-methylpyrrolidin-2-yl)methoxy)-7-(quinolin-4-yl)-5,6,7,8-tetrahydropyrido[3,4-d]pyrimidin-4-yl)piperazin-2-yl)acetonitrile], for which the IC50 lay in the range of 0.1 to 1000 nM.

With `C=C(F)C(=O)N1CCN(c2nc(OC[C@@H]3CCCN3C)nc3c2CCN(c2cccc(C)c2C)C3)C[C@@H]1CC#N` [Example 472, 2-[(2S)-4-[7-(2,3-dimethylphenyl)-2-[[(2S)-1-methylpyrrolidin-2-yl]methoxy]-6,8-dihydro-5H-pyrido[3,4-d]pyrimidin-4-yl]-1-(2-fluoroprop-2-enoyl)piperazin-2-yl]acetonitrile], the concentration for half-maximal inhibition (IC50) lay in the range of 0.1 to 1000 nM.

In the case of `C=C(F)C(=O)N1CCN(c2nc(OC[C@@H]3C[C@H](C)CN3C)nc3c2CCN(c2cccc4cccc(C)c24)C3)C[C@@H]1CC#N` [Example 616, 2-[(2S)-4-[2-[[(2S,4S)-1,4-dimethylpyrrolidin-2-yl]methoxy]-7-(8-methyl-1-naphthyl)-6,8-dihydro-5H-pyrido[3,4-d]pyrimidin-4-yl]-1-(2-fluoroprop-2-enoyl)piperazin-2-yl]acetonitrile], the IC50 lay within 0.1 to 1000 nM.

As to `C=CC(=O)N1CCN(c2nc(OC[C@@H]3CCCN3C)nc3c2CCN(c2cnccc2OC)C3)C[C@@H]1CC#N` [Example 340, 2-((S)-1-acryloyl-4-(7-(4-methoxypyridin-3-yl)-2-(((S)-1-methylpyrrolidin-2-yl)methoxy)-5,6,7,8-tetrahydropyrido[3,4-d]pyrimidin-4-yl)piperazin-2-yl)acetonitrile], the IC50 is greater than 1000 nM.

For `C=CC(=O)N1CCN(c2nc(OCCN(C)C)nc3c2CCN(c2cc(O)cc4ccccc24)C3)C[C@@H]1CC#N` [Example 176, 2-[(2S)-4-[2-[2-(dimethylamino)ethoxy]-7-(3-hydroxy-1-naphthyl)-6,8-dihydro-5H-pyrido[3,4-d]pyrimidin-4-yl]-1-prop-2-enoyl-piperazin-2-yl] acetonitrile], the IC50 lay in the range of 0.1 to 1000 nM.

Consider `C=CC(=O)N1CCN(c2nc(OC[C@H]3CCCCN3C)nc3c2CCN(c2cc(O)cc4ccccc24)C3)CC1` [Example 195, (R)-1-(4-(7-(3-hydroxynaphthalen-1-yl)-2-((1-methylpiperidin-2-yl)methoxy)-5,6,7,8-tetrahydropyrido[3,4-d]pyrimidin-4-yl)piperazin-1-yl)prop-2-en-1-one], for which the IC50 was greater than 1000 nM.

Regarding `C=CC(=O)N1CCN(c2ncnc3c2CCN(c2nc(N)cc4ccccc24)C3)CC1` [Example 54, 1-[4-[7-(3-amino-1-isoquinolyl)-6,8-dihydro-5H-pyrido[3,4-d]pyrimidin-4-yl]piperazin-1-yl]prop-2-en-1-one], the IC50 was greater than 1000 nM.

Turning to `C=CC(=O)N1CCN(c2nc(OC[C@@H]3CCN(C)C3)nc3c2CCN(c2cccc4cccc(Cl)c24)C3)C[C@@H]1CC#N` [Example 361, 2-[(2S)-4-[7-(8-chloro-1-naphthyl)-2-[[(3R)-1-methylpyrrolidin-3-yl]methoxy]-6,8-dihydro-5H-pyrido[3,4-d]pyrimidin-4-yl]-1-prop-2-enoyl-piperazin-2-yl]acetonitrile], the IC50 was in the range of 0.1 to 1000 nM.

As for `C=CC(=O)N1CCN(c2nc(N3CC(N(C)C)C3)nc3c2CCN(c2cc(O)cc4ccccc24)C3)CC1` [Example 128, 1-(4-(2-(3-(dimethylamino)azetidin-1-yl)-7-(3-hydroxynaphthalen-1-yl)-5,6,7,8-tetrahydropyrido[3,4-d]pyrimidin-4-yl)piperazin-1-yl)prop-2-en-1-one], the IC50 was greater than 1000 nM.

In the case of `C=CC(=O)N1CCN(c2nc(OC[C@@H]3C[C@@H](F)CN3C)nc3c2CCN(c2cncc(F)c2C(F)(F)F)C3)C[C@@H]1CC#N` [Example 384, 2-((S)-1-acryloyl-4-(2-(((2S,4R)-4-fluoro-1-methylpyrrolidin-2-yl)methoxy)-7-(5-fluoro-4-(trifluoromethyl)pyridin-3-yl)-5,6,7,8-tetrahydropyrido[3,4-d]pyrimidin-4-yl)piperazin-2-yl)acetonitrile], the IC50 lay in the range of 0.1 to 1000 nM.

Consider `C=CC(=O)N1CCN(c2nc(OC[C@@H]3CCCN3C)nc3c2CCN(c2cccc(C)c2C(F)(F)F)C3)C[C@@H]1CC#N` [Example 364, 2-[(2S)-4-[2-[[(2S)-1-methylpyrrolidin-2-yl]methoxy]-7-[3-methyl-2-(trifluoromethyl)phenyl]-6,8-dihydro-5H-pyrido[3,4-d]pyrimidin-4-yl]-1-prop-2-enoyl-piperazin-2-yl]acetonitrile], for which the IC50 was in the range of 0.1 to 1000 nM.

Regarding `C=CC(=O)N1[C@@H]2CC[C@H]1CN(c1nc(OC(C)CN(C)C)nc3c1CCN(c1cc(O)cc4ccccc14)C3)C2` (stereo partly drawn) [Example 45, 1-((1R,5S)-3-(2-((1-(dimethylamino)propan-2-yl)oxy)-7-(3-hydroxynaphthalen-1-yl)-5,6,7,8-tetrahydropyrido[3,4-d]pyrimidin-4-yl)-3,8-diazabicyclo[3.2.1]octan-8-yl)prop-2-en-1-one], the IC50 was greater than 1000 nM.

In the case of `C=CC(=O)N1CCN(c2nc(OCCCN3CCOCC3)nc3c2CCN(c2cc(O)cc4cc(C)ccc24)C3)CC1` [Example 43, 1-(4-(7-(3-hydroxy-6-methylnaphthalen-1-yl)-2-(3-morpholinopropoxy)-5,6,7,8-tetrahydropyrido[3,4-d]pyrimidin-4-yl)piperazin-1-yl)prop-2-en-1-one], the IC50 is greater than 1000 nM.

As to `C=CC(=O)N1CCN(c2nc(OC[C@@H]3CCCN3C)nc3c2CCN(c2cccc4ccc(C)cc24)C3)C[C@@H]1CC#N` [Example 326, 2-((S)-1-acryloyl-4-(7-(7-methylnaphthalen-1-yl)-2-(((S)-1-methylpyrrolidin-2-yl)methoxy)-5,6,7,8-tetrahydropyrido[3,4-d]pyrimidin-4-yl)piperazin-2-yl)acetonitrile], the IC50 was 0.1 to 1000 nM.

Regarding `CN(C)C/C=C/C(=O)N1CCN(c2nc(OC[C@@H]3CCCN3C)nc3c2CCN(c2cccc(Cl)c2C(F)(F)F)C3)C[C@@H]1CC#N` [Example 427], the IC50 fell in the range of 0.1 to 1000 nM.

These data come from patent US10689377B2 (Mirati Therapeutics, Inc., priority 2017, dated 2020).
